Experimental data taken from patent publication US6812252B2, “Acylsulfonamide derivatives” (Ajinomoto Co., Inc., priority 2000, dated 2004).

SMILES	melting point [°C]
CCCOCC(=O)NS(=O)(=O)c1ccccc1NC(=O)c1ccc(C#Cc2cccc(C(F)(F)F)c2)cc1 [Example 3, 4-(3-Trifluoromethyl)phenylethynyl-N-(2-(2-propyloxyacetylamino)sulfonylphenyl)benzamide]	175 to 177
CCCCCC(=O)NS(=O)(=O)c1ccccc1NC(=O)c1ccc(C#Cc2ccc(OC(F)(F)F)cc2)cc1 [Example 5, 4-(4-Trifluoromethoxy)phenylethynyl-N-(2-hexanoylaminosulfonylphenyl)benzamide]	197 to 199
CCCCCC(=O)NS(=O)(=O)c1ccccc1NC(=O)c1ccc(C#Cc2ccc(C(F)(F)F)cc2)cc1 [Example 4, 4-(4-Trifluoromethyl)phenylethynyl-N-(2-hexanoylaminosulfonylphenyl)benzamide]	210 to 212
CCCCCC(=O)NS(=O)(=O)c1ccccc1NC(=O)c1ccc(C#Cc2cccc(C(F)(F)F)c2)cc1 [Example 1, 4-(3-Trifluoromethyl)phenylethynyl-N-(2-hexanoylaminosulfonylphenyl)benzamide]	194 to 196
CCCCCC(=O)NS(=O)(=O)c1ccccc1NC(=O)c1ccc(C#Cc2cccc(F)c2)cc1 [Example 9, 4-(3-Fluoro)phenylethynyl-N-(2-hexanoylaminosulfonylphenyl)benzamide]	183 to 186

Continued, values first:

melting point [°C]	SMILES
169 to 171	CC(=O)CCCC(=O)NS(=O)(=O)c1ccccc1NC(=O)c1ccc(C#Cc2cccc(C(F)(F)F)c2)cc1 [Example 2, 4-(3-Trifluoromethyl)phenylethynyl-N-(2-(5-ketohexanoylamino)-sulfonylphenyl)benzamide]
179 to 181	CC(=O)CCCC(=O)NS(=O)(=O)c1ccccc1NC(=O)c1ccc(C#Cc2ccc(F)cc2)cc1 [Example 8, 4-(4-Fluoro)phenylethynyl-N-(2-(5-ketohexanoylamino)sulfonylphenyl)benzamide]
183 to 186	CCCCCC(=O)NS(=O)(=O)c1ccccc1NC(=O)c1ccc(C#Cc2ccc(F)cc2)cc1 [Example 7, 4-(4-Fluoro)phenylethynyl-N-(2-hexanoylaminosulfonylphenyl)benzamide]
204 to 205	CC(=O)CCCC(=O)NS(=O)(=O)c1ccccc1NC(=O)c1ccc(C#Cc2ccc(OC(F)(F)F)cc2)cc1 [Example 6, 4-(4-Trifluoromethoxy)phenylethynyl-N-(2-(5-ketohexanoylamino)-sulfonylphenyl)benzamide]
